Experimental data published in the supplement of paper PMC10307832.

Columns and labels:
Assay in all cases: relative viability (nuclei count vs DMSO), 5 days (fraction); higher = more cells survive
NCI-H522 = tested on: NCI-H522
Summary of the method: (§1)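 Each reported value is a median over duplicate plates. It expresses relative viability: treated-well nuclei count divided by vehicle-well nuclei count. Lung cancer cell lines in 1536-well plates were dosed by pin tool a day after seeding, alone with one drug or with a fixed anchor-drug dose plus five library-drug doses (not always all listed) in √10 steps, and nuclei were counted after 5 days.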

SK-LU-1 = tested on: SK-LU-1
Summary of the method: as §1

A-427 = tested on: A-427
Summary of the method: as §1

NCI-H1395 = tested on: NCI-H1395
Summary of the method: as §1

NCI-H1755 = tested on: NCI-H1755
Summary of the method: as §1

NCI-H23 = tested on: NCI-H23
Summary of the method: as §1

HCC-827 = tested on: HCC-827
Summary of the method: as §1

CAL-12T = tested on: CAL-12T
Summary of the method: as §1

NCI-H1915 = tested on: NCI-H1915
Summary of the method: as §1

NCI-H460 = tested on: NCI-H460
Summary of the method: as §1

LCLC-103H = tested on: LCLC-103H
Summary of the method: as §1

NCI-H2228 = tested on: NCI-H2228
Summary of the method: as §1

SW 1573 = tested on: SW 1573
Summary of the method: as §1

EMC-BAC-2 = tested on: EMC-BAC-2
Summary of the method: as §1

NCI-H2009 = tested on: NCI-H2009
Summary of the method: as §1

NCI-H1792 = tested on: NCI-H1792
Summary of the method: as §1

NCI-H1437 = tested on: NCI-H1437
Summary of the method: as §1

HARA = tested on: HARA
Summary of the method: as §1

COR-L 105 = tested on: COR-L 105
Summary of the method: as §1

NCI-H727 = tested on: NCI-H727
Summary of the method: as §1

HOP-62 = tested on: HOP-62
Summary of the method: as §1

HCC-366 = tested on: HCC-366
Summary of the method: as §1

SMILES: O=c1cc(N2CCOCC2)oc2c(-c3cccc4c3sc3ccccc34)cccc12 + O=C(c1cc(Cc2n[nH]c(=O)c3ccccc23)ccc1F)N1CCN(C(=O)C2CC2)CC1 [Olaparib] (partner 8 µM)
- relative viability (NCI-H522; first compound 0.01 µM): 0.59
- relative viability (NCI-H522; first compound 0.03162 µM): 0.696
- relative viability (NCI-H522; first compound 0.1 µM): 0.739
- relative viability (NCI-H522; first compound 0.3162 µM): 0.602
- relative viability (NCI-H522; first compound 1 µM): 0.572
- relative viability (SK-LU-1; first compound 0.01 µM): 0.434
- relative viability (SK-LU-1; first compound 0.03162 µM): 0.447
- relative viability (SK-LU-1; first compound 0.1 µM): 0.387
- relative viability (SK-LU-1; first compound 0.3162 µM): 0.52
- relative viability (SK-LU-1; first compound 1 µM): 0.51
- relative viability (A-427; first compound 0.01 µM): 0.742
- relative viability (A-427; first compound 0.03162 µM): 0.706
- relative viability (A-427; first compound 0.1 µM): 0.737
- relative viability (A-427; first compound 0.3162 µM): 0.731
- relative viability (A-427; first compound 1 µM): 0.733
- relative viability (NCI-H1395; first compound 0.03162 µM): 0.457
- relative viability (NCI-H1395; first compound 0.1 µM): 0.445
- relative viability (NCI-H1395; first compound 0.3162 µM): 0.467
- relative viability (NCI-H1395; first compound 1 µM): 0.498
- relative viability (NCI-H1755; first compound 0.01 µM): 0.896
- relative viability (NCI-H1755; first compound 0.03162 µM): 0.891
- relative viability (NCI-H1755; first compound 0.1 µM): 0.869
- relative viability (NCI-H1755; first compound 0.3162 µM): 0.848
- relative viability (NCI-H1755; first compound 1 µM): 0.883
- relative viability (NCI-H23; first compound 0.01 µM): 0.399
- relative viability (NCI-H23; first compound 0.03162 µM): 0.335
- relative viability (NCI-H23; first compound 0.3162 µM): 0.344
- relative viability (NCI-H23; first compound 1 µM): 0.343
- relative viability (HCC-827; first compound 0.01 µM): 0.695
- relative viability (HCC-827; first compound 0.03162 µM): 0.609
- relative viability (HCC-827; first compound 0.1 µM): 0.623
- relative viability (HCC-827; first compound 0.3162 µM): 0.641
- relative viability (HCC-827; first compound 1 µM): 0.642
- relative viability (CAL-12T; first compound 0.01 µM): 0.682
- relative viability (CAL-12T; first compound 0.03162 µM): 0.707
- relative viability (CAL-12T; first compound 0.1 µM): 0.75
- relative viability (CAL-12T; first compound 0.3162 µM): 0.693
- relative viability (CAL-12T; first compound 1 µM): 0.744
- relative viability (NCI-H1915; first compound 0.01 µM): 0.258
- relative viability (NCI-H1915; first compound 0.03162 µM): 0.269
- relative viability (NCI-H1915; first compound 0.1 µM): 0.301
- relative viability (NCI-H1915; first compound 0.3162 µM): 0.26
- relative viability (NCI-H1915; first compound 1 µM): 0.262
- relative viability (NCI-H460; first compound 0.01 µM): 0.452
- relative viability (NCI-H460; first compound 0.03162 µM): 0.37
- relative viability (NCI-H460; first compound 0.1 µM): 0.452
- relative viability (NCI-H460; first compound 0.3162 µM): 0.403
- relative viability (NCI-H460; first compound 1 µM): 0.406
- relative viability (LCLC-103H; first compound 0.01 µM): 0.718
- relative viability (LCLC-103H; first compound 0.03162 µM): 0.786
- relative viability (LCLC-103H; first compound 0.1 µM): 0.771
- relative viability (LCLC-103H; first compound 0.3162 µM): 0.707
- relative viability (LCLC-103H; first compound 1 µM): 0.749
- relative viability (NCI-H2228; first compound 0.01 µM): 0.646
- relative viability (NCI-H2228; first compound 0.03162 µM): 0.654
- relative viability (NCI-H2228; first compound 0.1 µM): 0.891
- relative viability (NCI-H2228; first compound 0.3162 µM): 0.803
- relative viability (NCI-H2228; first compound 1 µM): 0.571
- relative viability (SW 1573; first compound 0.01 µM): 0.491
- relative viability (SW 1573; first compound 0.03162 µM): 0.446
- relative viability (SW 1573; first compound 0.1 µM): 0.447
- relative viability (SW 1573; first compound 0.3162 µM): 0.441
- relative viability (SW 1573; first compound 1 µM): 0.466
- relative viability (EMC-BAC-2; first compound 0.01 µM): 0.486
- relative viability (EMC-BAC-2; first compound 0.03162 µM): 0.507
- relative viability (EMC-BAC-2; first compound 0.1 µM): 0.548
- relative viability (EMC-BAC-2; first compound 0.3162 µM): 0.412
- relative viability (EMC-BAC-2; first compound 1 µM): 0.489
- relative viability (NCI-H2009; first compound 0.01 µM): 0.718
- relative viability (NCI-H2009; first compound 0.03162 µM): 0.651
- relative viability (NCI-H2009; first compound 0.1 µM): 0.592
- relative viability (NCI-H2009; first compound 0.3162 µM): 0.652
- relative viability (NCI-H2009; first compound 1 µM): 0.673
- relative viability (NCI-H1792; first compound 0.01 µM): 0.445
- relative viability (NCI-H1792; first compound 0.03162 µM): 0.465
- relative viability (NCI-H1792; first compound 0.3162 µM): 0.403
- relative viability (NCI-H1792; first compound 1 µM): 0.405
- relative viability (NCI-H1437; first compound 0.01 µM): 0.606
- relative viability (NCI-H1437; first compound 0.03162 µM): 0.656
- relative viability (NCI-H1437; first compound 0.1 µM): 0.725
- relative viability (NCI-H1437; first compound 0.3162 µM): 0.656
- relative viability (NCI-H1437; first compound 1 µM): 0.613
- relative viability (HARA; first compound 0.01 µM): 0.762
- relative viability (HARA; first compound 0.03162 µM): 1.01
- relative viability (HARA; first compound 0.1 µM): 0.884
- relative viability (HARA; first compound 0.3162 µM): 0.972
- relative viability (HARA; first compound 1 µM): 0.792
- relative viability (COR-L 105; first compound 0.01 µM): 0.661
- relative viability (COR-L 105; first compound 0.03162 µM): 0.756
- relative viability (COR-L 105; first compound 0.1 µM): 0.687
- relative viability (COR-L 105; first compound 0.3162 µM): 0.694
- relative viability (COR-L 105; first compound 1 µM): 0.575
- relative viability (NCI-H727; first compound 0.01 µM): 0.692
- relative viability (NCI-H727; first compound 0.03162 µM): 0.618
- relative viability (NCI-H727; first compound 0.1 µM): 0.679
- relative viability (NCI-H727; first compound 0.3162 µM): 0.711
- relative viability (NCI-H727; first compound 1 µM): 0.684
- relative viability (HOP-62; first compound 0.01 µM): 0.441
- relative viability (HOP-62; first compound 0.03162 µM): 0.58
- relative viability (HOP-62; first compound 0.1 µM): 0.409
- relative viability (HOP-62; first compound 0.3162 µM): 0.523
- relative viability (HOP-62; first compound 1 µM): 0.377
- relative viability (HCC-366; first compound 0.01 µM): 0.368
- relative viability (HCC-366; first compound 0.03162 µM): 0.319
- relative viability (HCC-366; first compound 0.1 µM): 0.435
- relative viability (HCC-366; first compound 0.3162 µM): 0.346
- relative viability (HCC-366; first compound 1 µM): 0.386
